The numbers were not newly measured in EP0374725A2, “Transdermal therapeutic system having norpseudoephedrine as the active compound” (LTS Lohmann Therapie-Systeme GmbH & Co. KG, priority 1988, dated 1990), which cites them from elsewhere.

For this data set the following is noted: background statement, amphetamines as medium-strong bases.

`C[C@H](N)[C@@H](O)c1ccccc1` [D-Norpseudoephedrin]: the pka-Wert was 8,9.
